Mortality data for 31 molecules are collected here from ChEMBL document CHEMBL3045686, “Insecticidal Activity of N-Acyl-N-(4-aryloxybenzyl)pyrazole-5-carboxamides” (2003).

The test system of the first assay is Spodoptera litura. As to the kind of experiment: Insecticidal activity Spodoptera litura third-instar larvae fed on compound pre-treated cabbage leaf disks assessed as insect mortality at 3.1 ppm measured 5 days after compound treatment. Conditions: foliar. It is filed as functional.
As for `CCc1cc(C(=O)N(Cc2ccc(Oc3ccc(C#N)cc3)cc2)C(=O)C(C)C)n(C)n1`, the mortality at 3.1 ppm is > 80%. On the same count and under the same terms, in the case of `CCc1cc(C(=O)N(Cc2ccc(Oc3ccc(SC)cc3)cc2)C(C)=O)n(C)n1` it was > 80%.

Turning to `CCc1cc(C(=O)N(Cc2ccc(Oc3ccc(C#N)cc3)cc2)C(C)=O)n(C)n1`, the mortality at 3.1 ppm was > 80%.

A further assay deals with Spodoptera litura. As to the kind of experiment: Insecticidal activity Spodoptera litura third-instar larvae fed on compound pre-treated cabbage leaf disks assessed as insect mortality at 200 ppm measured 5 days after compound treatment. It is filed as functional. As to conditions: foliar.
Turning to `CC(=O)N(Cc1ccc(Oc2ccc(C#N)cc2)cc1)C(=O)c1cc(C(C)(C)C)nn1C`, the mortality at 200 ppm was < 80%. On to `CCc1cc(C(=O)N(Cc2ccc(Oc3ccccc3)cc2)C(C)=O)n(C)n1`, for which the mortality at 200 ppm was < 80%. On the same count and under the same terms, the figure for `CC(=O)N(Cc1ccc(Oc2ccc(C#N)cc2)cc1)C(=O)c1cc(CC(C)C)nn1C` is > 80%; for `CCCCc1cc(C(=O)N(Cc2ccc(Oc3ccc(C#N)cc3)cc2)C(C)=O)n(C)n1` it is < 80%. On the same count and under the same terms, the figure for `CCCCOc1cc(C(=O)N(Cc2ccc(Oc3ccc(C#N)cc3)cc2)C(C)=O)n(C)n1` is > 80%; for `CCc1cc(C(=O)N(Cc2ccc(Oc3ccc(F)cc3)cc2)C(C)=O)n(C)n1` it is > 80%. For `CCCCCc1cc(C(=O)N(Cc2ccc(Oc3ccc(C#N)cc3)cc2)C(C)=O)n(C)n1`, the mortality at 200 ppm is < 80%. Take `CCc1cc(C(=O)N(Cc2ccc(Oc3ccc(OC)cc3)cc2)C(C)=O)n(C)n1`: the mortality at 200 ppm is < 80%. On the same count and under the same terms, the figure for `CCc1cc(C(=O)N(Cc2ccc(Oc3ccc(Cl)cc3)cc2)C(C)=O)n(C)n1` is > 80%. For `CCc1cc(C(=O)N(Cc2ccc(Oc3ccc(C)cc3)cc2)C(C)=O)n(C)n1`, the mortality at 200 ppm is > 80%.

The test system of another assay is Spodoptera litura. Put plainly: Insecticidal activity Spodoptera litura third-instar larvae fed on compound pre-treated cabbage leaf disks assessed as insect mortality at 13 ppm measured 5 days after compound treatment. It is filed as functional. Conditions: foliar.
Consider `CC(=O)N(Cc1ccc(Oc2ccc(C#N)cc2)cc1)C(=O)c1cc(C2CC2)nn1C`, for which the mortality at 13 ppm is > 80%.

As to `CCc1cc(C(=O)N(Cc2ccc(Oc3ccc(C#N)cc3)cc2)C(=O)C2CC2)n(C)n1`, the mortality at 13 ppm is > 80%. As to `CCCc1cc(C(=O)N(Cc2ccc(Oc3ccc(C#N)cc3)cc2)C(C)=O)n(C)n1`, the mortality at 13 ppm is > 80%. The same measure, in the same setting: the figure for `CCc1cc(C(=O)N(Cc2ccc(Oc3ccc(C(F)(F)F)cc3)cc2)C(C)=O)n(C)n1` is > 80%; for `CCCCC(=O)N(Cc1ccc(Oc2ccc(C#N)cc2)cc1)C(=O)c1cc(CC)nn1C` it is > 80%; for `CCC(C)c1cc(C(=O)N(Cc2ccc(Oc3ccc(C#N)cc3)cc2)C(C)=O)n(C)n1` (stereo unspecified) it is > 80%. Still for that read-out and setting: the figure for `CCC(=O)N(Cc1ccc(Oc2ccc(C#N)cc2)cc1)C(=O)c1cc(CC)nn1C` is > 80%; for `CCCC(=O)N(Cc1ccc(Oc2ccc(C#N)cc2)cc1)C(=O)c1cc(CC)nn1C` it is > 80%; for `CCc1cc(C(=O)N(Cc2ccc(Oc3ccc(C#N)cc3)cc2)C(=O)C(C)CC)n(C)n1` (stereo unspecified) it is > 80%. The same measure, in the same setting: the figure for `CCc1cc(C(=O)N(Cc2ccc(Oc3ccc([N+](=O)[O-])cc3)cc2)C(C)=O)n(C)n1` is > 80%; for `CCc1cc(C(=O)N(Cc2ccc(Oc3ccc(C#N)cc3)cc2)C(=O)CC(C)C)n(C)n1` it is > 80%.

For a further assay, the system named is Spodoptera litura. As to the kind of experiment: Insecticidal activity Spodoptera litura third-instar larvae fed on compound pre-treated cabbage leaf disks assessed as insect mortality at 50 ppm measured 5 days after compound treatment. It counts as functional. As to conditions: foliar.
Consider `CCc1cc(C(=O)NCc2ccc(Oc3ccc(C#N)cc3)cc2)n(C)n1`, for which the mortality at 50 ppm is > 80%. Still for that read-out and setting: in the case of `COc1cc(C(=O)N(Cc2ccc(Oc3ccc(C#N)cc3)cc2)C(C)=O)n(C)n1` it was > 80%. As to `CCc1cc(C(=O)N(Cc2ccc(Oc3ccc(C#N)cc3)cc2)C(=O)C(C)(C)C)n(C)n1`, the mortality at 50 ppm was > 80%.

As for `CCOc1cc(C(=O)N(Cc2ccc(Oc3ccc(C#N)cc3)cc2)C(C)=O)n(C)n1`, the mortality at 50 ppm was > 80%. The same measure, in the same setting: the figure for `CC(=O)N(Cc1ccc(Oc2ccc(C#N)cc2)cc1)C(=O)c1cc(C(C)C)nn1C` is > 80%.

On to `CC(=O)N(Cc1ccc(Oc2ccc(C#N)cc2)cc1)C(=O)c1cc(OC(C)C)nn1C`, for which the mortality at 50 ppm was > 80%. On the same count and under the same terms, in the case of `CC(=O)N(Cc1ccc(Oc2ccc(C#N)cc2)cc1)C(=O)c1cc(C)nn1C` it was > 80%.
